In experiment [1] the target is T1, M2_G15 fusion protein (M2 muscarinic receptor fused with the G15 G-protein alpha-subunit) (Homo sapiens, UniProt P08172).
T1 sequence (P08172 1-466): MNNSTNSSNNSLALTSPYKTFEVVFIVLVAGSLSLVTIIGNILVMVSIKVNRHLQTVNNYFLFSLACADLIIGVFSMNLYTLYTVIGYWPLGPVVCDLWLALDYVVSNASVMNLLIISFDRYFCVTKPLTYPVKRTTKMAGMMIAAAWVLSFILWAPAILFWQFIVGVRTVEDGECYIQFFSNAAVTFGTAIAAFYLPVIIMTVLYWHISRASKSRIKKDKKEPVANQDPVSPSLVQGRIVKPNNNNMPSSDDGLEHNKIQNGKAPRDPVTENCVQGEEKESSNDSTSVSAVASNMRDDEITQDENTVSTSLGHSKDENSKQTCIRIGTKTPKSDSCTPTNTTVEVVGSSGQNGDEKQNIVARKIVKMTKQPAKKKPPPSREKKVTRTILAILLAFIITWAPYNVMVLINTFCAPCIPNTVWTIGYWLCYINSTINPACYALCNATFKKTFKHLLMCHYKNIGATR
T1 sequence (P30679 1-374 partner): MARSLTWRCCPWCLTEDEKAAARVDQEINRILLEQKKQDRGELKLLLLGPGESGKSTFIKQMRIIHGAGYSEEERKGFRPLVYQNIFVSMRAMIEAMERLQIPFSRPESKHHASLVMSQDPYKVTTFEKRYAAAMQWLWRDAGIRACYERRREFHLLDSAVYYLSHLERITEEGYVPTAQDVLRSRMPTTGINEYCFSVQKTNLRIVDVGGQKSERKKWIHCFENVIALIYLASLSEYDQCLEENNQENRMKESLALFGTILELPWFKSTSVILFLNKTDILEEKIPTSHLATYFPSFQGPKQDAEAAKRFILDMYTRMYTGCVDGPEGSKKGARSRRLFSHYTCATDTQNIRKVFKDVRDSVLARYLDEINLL
Briefly: agonist-stimulated […]GTPγS binding, membranes. It is filed as biochemical. On the set-up: gene CHRM2; clone #3, except KA from all five clones. (GTPγS resists hydrolysis and so accumulates on activated G proteins.)

Experiment [2] deals with T2, M4_G15 fusion protein (M4 muscarinic receptor fused with the G15 G-protein alpha-subunit) (Homo sapiens, UniProt P08173).
T2 sequence (P08173 1-479): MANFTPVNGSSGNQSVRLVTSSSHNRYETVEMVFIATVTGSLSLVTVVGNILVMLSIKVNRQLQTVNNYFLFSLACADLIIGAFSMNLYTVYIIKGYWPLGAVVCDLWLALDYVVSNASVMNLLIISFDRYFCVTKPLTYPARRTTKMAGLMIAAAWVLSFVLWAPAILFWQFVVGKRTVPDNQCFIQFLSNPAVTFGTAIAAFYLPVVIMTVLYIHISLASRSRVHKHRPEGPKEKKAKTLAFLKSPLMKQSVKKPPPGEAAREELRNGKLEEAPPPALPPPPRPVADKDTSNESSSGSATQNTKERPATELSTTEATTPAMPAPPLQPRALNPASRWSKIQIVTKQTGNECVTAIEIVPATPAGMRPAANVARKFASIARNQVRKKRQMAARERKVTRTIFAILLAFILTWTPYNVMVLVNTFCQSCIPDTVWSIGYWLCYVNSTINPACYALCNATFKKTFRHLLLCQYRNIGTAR
T2 sequence (P30679 1-374 partner): T1 sequence (P30679 1-374 partner)
Briefly: biochemical. Also on record: gene CHRM4.

Experiment [3] concerns the target T2, M4_G15 fusion protein (M4 muscarinic receptor fused with the G15 G-protein alpha-subunit). The experiment is described as follows: agonist-stimulated […]GTPγS binding, membranes. It is filed as biochemical. Also on record: gene CHRM4; M4 fused via ARATR linker to N-terminus of G15 alpha-subunit (one fused chain); clone #3, except KA from all five clones.
Experiment [4] deals with T1, M2_G15 fusion protein (M2 muscarinic receptor fused with the G15 G-protein alpha-subunit). The experiment is described as follows: biochemical. On the set-up: gene CHRM2.

The values below come from paper PMC6420642, “Applications and limitations of fitting of the operational model to determine relative efficacies of agonists” (Scientific Reports, 2019).

Each structure is given as a SMILES string.

Take `Clc1ccc2c(c1)N=C(N1CCNCC1)c1ccccc1N2` [NDMC]: in experiment [1] (clone #[…], agonist; […] […]GTPγS, […] GDP, […] MgCl2, […] °C), the pEC50 (usually −log10 of the EC50, conventionally taken in molar units) stood at 6.84 ± 0.03.
For `O=C1CCCN1CC#CCN1CCCC1` [oxotremorine], the results for the Ki in experiment [2] and in experiment [4] were 1480 nM and 1660 nM, respectively. The EC50 – broadly, the concentration giving half of the maximal effect – in experiment [3] is 17 nM; in experiment [1], 18.6 nM.
